Data on four compounds can be found in patent publication US20120251528A1, “Non-Human Mammal Model Of Human Hematopoietic Cancer” (priority 2009, published 2012).

“Also recorded” adds a separate entry of the source. Where only a bound is given, the exact number is not on record here.

One data set relates to GFP+ leukemic cells. Nature of the data set: Combinatorial treatment of Alemtuzumab and cyclophosphamide in secondary GFP/myc/bcl mice: GFP+ cells per organ. It counts as in vivo, mouse. To be noted: 9 days after beginning of treatment; for effect on the leukemia in the bone marrow: single treatment. The procedure: Absolute number of GFP+leukemic cells per organ was assessed by FACS and absolute count calculation.
Cohorts of secondary recipients were generated and divided into treatment groups as described above.

The test system of a further data set is GMB cells. Nature of the data set: Antibody-dependent cellular cytotoxicity with thioglycollate induced macrophages from NSG mice in vitro. It counts as cell-based, human. To be noted: for macrophage-mediated killing / lysis of leukemia cells: induced peritoneal NSG macrophages. The source says:
(§1) Antibody-bound leukemic cells can also be killed by complement-mediated lysis.

The test system of data set [1] is GFP/myc/bcl cells. Nature of the data set: F(ab)2 fragments of Alemtuzumab injected to secondary GFP/myc/bcl mice (Fc-dependent effects). In kind it is in vivo, mouse. As to conditions: injected day 14 after transplantation, vs Alemtuzumab control.
Excerpt: as §1

The test system of data set [2] is GFP/myc/bcl cells. Nature of the data set: Cumulative survival of secondary GFP/myc/bcl mice, Alemtuzumab vs control. To be noted: Log-rank test; FIG. 4C. It counts as in vivo, mouse.
Procedure: (§3) Each mouse in a cohort of secondary mice was injected with ˜10^6 GFP+ cells from the same primary donor mouse. 18-20 days later, mice were divided into 2 groups, and stratified for the density of GFP+ cells found in their peripheral blood (i.e. having the same (or similar) number of GFP+ cells/uL of blood).
(§4) Two days after completing the course of treatment, several mice were euthanized and the number of GFP+ cells in various organs was determined.
In data set [3] the test system is GFP/myc/bcl cells. Nature of the data set: Complement-dependent cytotoxicity (CDC) in vitro, Annexin-V-PE/7-AAD flow cytometry. In kind it is cell-based, human. To be noted: 1-100 μg/ml, 48 h. The procedure: Media were supplemented with human, murine BL6- as NSG-derived serum. Serum-free media and heat-inactivated serum served as control. Cell viability was assessed by Annexin-V-PE/7-AAD flow cytometry after 48 h.
as §1

Another data set relates to ALL-cells. Nature of the data set: Direct cytotoxic effects on ALL-cells in vitro. In kind it is cell-based, human.
Excerpt: as §1

The subject of another data set is leukemic cells. Nature of the data set: Alemtuzumab treatment of macrophage-depleted (clodronate liposomes) tumor-bearing mice. It counts as in vivo, mouse. As to conditions: treated 2 days after injection of clodronate liposomes.
In data set [4] the test system is GFP/myc/bcl cells. To be noted: 5 mg/kg i.v. days 1, 4, 7, two days after completing treatment.
Procedure: Mice were treated 14 days after transplantation while showing leukemic phenotype. […] Response to treatment was assessed after 7 days, a leukemic burden was measured by flow cytometry and calculating absolute cell count per organ.
as §3, §4
A short description of data set [5]: Alemtuzumab distribution in vivo, IVIS fluorometry. Also noted: species or system mouse. As to conditions: 24 h; for tissue distribution of fluorescent signal (spleen, liver, bones): 5 mg/kg i.v. The method, then:
High signal in dissected whole brain.
(§2) Mice were sacrificed after 24 h and imaged at an IVIS fluorometer. […] Organs were homogenized and cells from these organs were directly assessed for Alemtuzumab-AlexaFluor750 binding by flow cytometry.

Another data set has as its system GFP+ leukemia cells. Nature of the data set: In vivo binding of GFP/myc/bcl cells by labeled Alemtuzumab, flow cytometry of homogenized organs. Set-up: species or system mouse. To be noted: 5 mg/kg, 24 h. The procedure:
Organs were homogenized and antibody binding to cells detected by flow cytometry.
as §2
For orientation: A flow cytometer gives signals particle by particle.

The mark [6] stands for this setting: listed as Alemtuzumab-AlexaFluor750.

For the compound `O=P1(N(CCCl)CCCl)NCCCO1` (stereo not drawn) [cyclophosphamide], the “reduction of GFP+ cells found in the brain” value in the data set on GFP+ leukemic cells (150 mg/kg i.p. days 1 and 2) is on record as about 300 fold. Also, the “reduction of GFP+ cells in the peripheral blood” value in the data set on GFP+ leukemic cells (single agent) is “as effectively as the treatment using Alemtuzumab alone”. The “effect on the leukemia in the bone marrow” value in the data set with GFP+ leukemic cells is listed as “neither single treatment had much effect”.

“F(ab)2 fragments of Alemtuzumab: pepsin-digested F(ab)2-fragments of Alemtuzumab lacking the Fc part”: the “macrophage-mediated killing / lysis of leukemia cells” value in the data set on GMB cells is reported as “no effect”; in the data set on GMB cells (listed as F(ab)2 fragments), “No GFP/myc/bcl-directed killing”. Further, the results for the “therapeutic effect in secondary GFP/myc/bcl mice” value in the data set with GFP/myc/bcl cells [1] and in the data set with GFP/myc/bcl cells [1] (listed as F(ab)2-fragments of Alemtuzumab) were “no therapeutic effects” and “no therapeutic effect”, respectively.

For the compound Alemtuzumab, in the data set with GFP/myc/bcl cells [2], the “survival vs PBS-treated control” value is “survived significantly longer; also recorded: significant prolonged survival”. For the same compound, in the data set on GFP/myc/bcl cells [3] (media with human serum), the “complement-dependent cytotoxicity, human serum” value is listed as “detected in human serum”. Moreover, the “complement-dependent cytotoxicity, murine sera” value in the data set with GFP/myc/bcl cells [3] (media with murine BL6- or NSG-derived serum) is given as “did not mediate Alemtuzumab mediated tumor cell killing; also recorded: not in murine sera”. The “direct cytotoxic effects on ALL-cells” value in the data set with ALL-cells was “no direct cytotoxic effects”. In addition, in the data set with GMB cells (NSG macrophages in the presence of antibody), the “time within which macrophages killed GMB cells” value is given as at most 13 h. Further, the “macrophage-mediated killing / lysis of leukemia cells” value with GMB cells was “capable of ALL-cell lysis”. Further, the “reduction of leukemic cells in the spleen of macrophage-depleted mice” value in the data set with leukemic cells is “no reduction of leukemic cells in the spleen”. Moreover, the “effect on GFP+ cells in the brain” value in the data set on GFP+ leukemic cells (single agent) is on record as “no effect”. In addition, the “effect on the leukemia in the bone marrow” value in the data set on GFP+ leukemic cells was “neither single treatment had much effect”. Moreover, the “number of GFP+ cells in bone marrow vs control mice” value with GFP/myc/bcl cells [4] (bone marrow) is “approximately the same”. The “number of GFP+ cells in brain vs control mice” value in the data set with GFP/myc/bcl cells [4] (brain) was “approximately the same”. Also, the “decrease of GFP+ cells in liver vs PBS” value with GFP/myc/bcl cells [4] (liver) is given as about 400 fold. Further, in the data set with GFP/myc/bcl cells [4] (peripheral blood), the “decrease of GFP+ cells in peripheral blood vs PBS” value is reported as about 30 fold. In the data set on GFP/myc/bcl cells [4] (spleen), the “decrease of GFP+ cells in spleen vs PBS” value is reported as about 3300 fold.

On to “AlexaFluor750 labeled Alemtuzumab: Alemtuzumab labeled with AlexaFluor 750”, for which the “tissue distribution of fluorescent signal (spleen, liver, bones)” value in [5] is “Intense staining of spleen, liver and bones”. Also, in data set [5] (listed as Labeled Alemtuzumab), the “tissue distribution of fluorescent signal (spleen, liver, bones)” value was “focused on spleen and bones”. In [5] (i.v.), the “fluorescent signal in dissected whole brain” value is reported as “High signal”. Also, in the data set with GFP+ leukemia cells, the “antibody binding to GFP+ leukemia cells, bone marrow” value was “increased AlexaFLuor750 signal”; the “antibody binding to GFP+ leukemia cells, spleen” value is “increased AlexaFLuor750 signal”; the “antibody binding to brain-derived leukemia cells” value is reported as “no detection could be detected”. Besides, in the data set on GFP+ leukemia cells (setting [6]), the “antibody binding to GFP+ leukemia cells, bone marrow” value was “Strong antibody binding”; the “antibody binding to GFP+ leukemia cells, spleen” value was “Strong antibody binding”; the “antibody binding to brain-derived leukemia cells” value was “no specific binding”.
